Reference: patent US8030498B2, “Benzoylpyrazole compounds and herbicides containing them” (Ishihara Sangyo Kaisha, Ltd., priority 2005, dated 2011)

Key:
soybean = assay: Test Example 2: soil application on the day after sowing, growth inhibition rate, soybean; type: in vivo, Glycine max Merr.; conditions: 250 g/ha active ingredient, observed on 19th to 24th day
Outline: (§1)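 Pre-emergence soil treatment: one day post-sowing in upland soil, compound formulations at set active-ingredient rates were applied in 500 L/ha water. Visual rating of growth inhibition (0% untreated-equivalent to 100% complete kill) followed on days 19–24 after application.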

crabgrass = assay: Test Example 2: soil application on the day after sowing, growth inhibition rate, crabgrass; type: in vivo, Digitaria sanguinalis L.; conditions: 250 g/ha active ingredient, observed on 19th to 24th day
Outline: as §1

corn (Zea mays L.) = assay: Test Example 1: foliar treatment, growth inhibition rate, corn; type: in vivo; conditions: visually observed 17th to 23rd day after application
Outline: (§2)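 Visual scoring of growth inhibition, 0% (untreated) to 100% (complete kill), on days 17–23 following post-emergence spray of formulated compound in water (500 L/ha, 0.1 vol % spreader); plants treated at set leaf stages, e.g. corn 2.0–3.5, wheat 1.7–3.4.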

redroot pigweed = assay: Test Example 2: soil application on the day after sowing, growth inhibition rate, redroot pigweed; type: in vivo, Amaranthus retroflexus L.; conditions: 250 g/ha active ingredient, observed on 19th to 24th day
Outline: as §1

[1] = tested on: prickly sida (Sida spinosa L.); assay: Test Example 1: foliar treatment, growth inhibition rate, prickly sida; type: in vivo; conditions: visually observed 17th to 23rd day after application
Outline: as §2

wheat = assay: Test Example 2: soil application on the day after sowing, growth inhibition rate, wheat; type: in vivo, Triticum spp.; conditions: 250 g/ha active ingredient, observed on 19th to 24th day
Outline: as §1

wheat (Triticum spp.) = assay: Test Example 1: foliar treatment, growth inhibition rate, wheat; type: in vivo; conditions: visually observed 17th to 23rd day after application
Outline: as §2

[2] = tested on: redroot pigweed (Amaranthus retroflexus L.); assay: Test Example 1: foliar treatment, growth inhibition rate, redroot pigweed; type: in vivo; conditions: visually observed 17th to 23rd day after application
Outline: as §2

[3] = tested on: soybean (Glycine max Merr.); assay: Test Example 1: foliar treatment, growth inhibition rate, soybean; type: in vivo; conditions: visually observed 17th to 23rd day after application
Outline: as §2

prickly sida = assay: Test Example 2: soil application on the day after sowing, growth inhibition rate, prickly sida; type: in vivo, Sida spinosa L.; conditions: 250 g/ha active ingredient, observed on 19th to 24th day
Outline: as §1

[4] = tested on: barnyardgrass (Echinochloa crus-galli L.); assay: Test Example 1: foliar treatment, growth inhibition rate, barnyardgrass; type: in vivo; conditions: visually observed 17th to 23rd day after application
Outline: (§3)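 Plants grown in upland soil in pots were sprayed on the foliage at set leaf stages (corn 2.0–3.5, greenfoxtail 1.0–3.0, rice 1.0–2.5, wheat 1.7–3.4 leaves) with wettable powder or emulsifiable concentrate formulations diluted in water at 500 L/ha plus 0.1 vol % spreader. Growth inhibition was scored visually 17–23 days later.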

[5] = tested on: crabgrass (Digitaria sanguinalis L.); assay: Test Example 1: foliar treatment, growth inhibition rate, crabgrass; type: in vivo; conditions: visually observed 17th to 23rd day after application
Outline: as §2

corn = assay: Test Example 2: soil application on the day after sowing, growth inhibition rate, corn; type: in vivo, Zea mays L.; conditions: 250 g/ha active ingredient, observed on 19th to 24th day
Outline: as §1

velvetleaf = assay: Test Example 2: soil application on the day after sowing, growth inhibition rate, velvetleaf; type: in vivo, Abutilon theophrasti MEDIC.; conditions: 250 g/ha active ingredient, observed on 19th to 24th day
Outline: as §1

rice = assay: Test Example 2: soil application on the day after sowing, growth inhibition rate, rice; type: in vivo, Oryza sativa L.; conditions: 250 g/ha active ingredient, observed on 19th to 24th day
Outline: as §1

greenfoxtail = assay: Test Example 2: soil application on the day after sowing, growth inhibition rate, greenfoxtail; type: in vivo, Setaria viridis L.; conditions: 250 g/ha active ingredient, observed on 19th to 24th day
Outline: as §1

barnyardgrass = assay: Test Example 2: soil application on the day after sowing, growth inhibition rate, barnyardgrass; type: in vivo, Echinochloa crus-galli L.; conditions: 250 g/ha active ingredient, observed on 19th to 24th day
Outline: as §1

[6] = tested on: greenfoxtail (Setaria viridis L.); assay: Test Example 1: foliar treatment, growth inhibition rate, greenfoxtail; type: in vivo; conditions: visually observed 17th to 23rd day after application
Outline: as §2

rice (Oryza sativa L.) = assay: Test Example 1: foliar treatment, growth inhibition rate, rice; type: in vivo; conditions: visually observed 17th to 23rd day after application
Outline: as §2

[7] = tested on: velvetleaf (Abutilon theophrasti MEDIC.); assay: Test Example 1: foliar treatment, growth inhibition rate, velvetleaf; type: in vivo; conditions: visually observed 17th to 23rd day after application
Outline: as §3

SMILES	Growth inhibition rate (%) Soybean (soybean)	Growth inhibition rate (%) Crabgrass (crabgrass)	Growth inhibition rate (%) redroot pigweed (redroot pigweed)	Growth inhibition rate (%) Wheat (wheat)	Growth inhibition rate (%) Prickly sida (prickly sida)	Growth inhibition rate (%) Corn (corn)	Growth inhibition rate (%) Velvetleaf (velvetleaf)	Growth inhibition rate (%) Rice (rice)	Growth inhibition rate (%) Greenfoxtail (greenfoxtail)	Growth inhibition rate (%) Barnyardgrass (barnyardgrass)	Growth inhibition rate (%) Corn (corn (Zea mays L.); 31 g/ha active ingredient)	Growth inhibition rate (%) Prickly sida ([1]; 31 g/ha active ingredient)	Growth inhibition rate (%) Wheat (wheat (Triticum spp.); 31 g/ha active ingredient)	Growth inhibition rate (%) redroot pigweed ([2]; 31 g/ha active ingredient)	Growth inhibition rate (%) Soybean ([3]; 31 g/ha active ingredient)	Growth inhibition rate (%) Barnyardgrass ([4]; 31 g/ha active ingredient)	Growth inhibition rate (%) Crabgrass ([5]; 31 g/ha active ingredient)	Growth inhibition rate (%) Greenfoxtail ([6]; 31 g/ha active ingredient)	Growth inhibition rate (%) Rice (rice (Oryza sativa L.); 31 g/ha active ingredient)	Growth inhibition rate (%) Velvetleaf ([7]; 31 g/ha active ingredient)	other results
CCC(C)SC(=O)Oc1c(C(=O)c2ccc(S(C)(=O)=O)c(C(=O)OC)c2Cl)cnn1CC (stereo not drawn) [compound 220]	0%	95%	100%	0%	95%	0%	95%	100%	100%	95%											Growth inhibition rate (%) Corn (corn (Zea mays L.); 63 g/ha active ingredient): 0%; Growth inhibition rate (%) Prickly sida ([1]; 63 g/ha active ingredient): 90%; Growth inhibition rate (%) Wheat (wheat (Triticum spp.); 63 g/ha active ingredient): 0%; Growth inhibition rate (%) redroot pigweed ([2]; 63 g/ha active ingredient): 100%; Growth inhibition rate (%) Soybean ([3]; 63 g/ha active ingredient): 100%; Growth inhibition rate (%) Barnyardgrass ([4]; 63 g/ha active ingredient): 100%; Growth inhibition rate (%) Crabgrass ([5]; 63 g/ha active ingredient): 60%; Growth inhibition rate (%) Greenfoxtail ([6]; 63 g/ha active ingredient): 70%; Growth inhibition rate (%) Rice (rice (Oryza sativa L.); 63 g/ha active ingredient): 80%; Growth inhibition rate (%) Velvetleaf ([7]; 63 g/ha active ingredient): 90%
CCOC(=O)COc1c(S(C)(=O)=O)ccc(C(=O)c2cnn(C)c2OC(=O)SCC)c1C [compound 65]	0%	10%	20%	0%	0%	0%	0%	0%	10%	0%	0%	30%	0%	30%	10%	20%	10%	10%	0%	50%	
CCSC(=O)Oc1c(C(=O)c2ccc(S(C)(=O)=O)c(C#N)c2C)cnn1C [compound 82]	0%	70%	50%	0%	80%	0%	20%	10%	20%	30%	0%	50%	0%	60%	70%	70%	40%	60%	40%	70%	
CCC(C)SC(=O)Oc1c(C(=O)c2ccc(S(C)(=O)=O)c(C(=O)OC)c2C)cnn1C (stereo not drawn) [compound 88]	0%	100%	100%	0%	95%	0%	100%	95%	98%	100%	20%	90%	10%	95%	95%	98%	95%	100%	95%	95%	
CCSC(=O)Oc1c(C(=O)c2ccc(S(C)(=O)=O)c(OC)c2Cl)cnn1C [compound 214]	20%	100%	90%	0%	90%	0%	90%	100%	100%	100%											Growth inhibition rate (%) Corn (corn (Zea mays L.); 63 g/ha active ingredient): 0%; Growth inhibition rate (%) Prickly sida ([1]; 63 g/ha active ingredient): 70%; Growth inhibition rate (%) Wheat (wheat (Triticum spp.); 63 g/ha active ingredient): 0%; Growth inhibition rate (%) redroot pigweed ([2]; 63 g/ha active ingredient): 100%; Growth inhibition rate (%) Soybean ([3]; 63 g/ha active ingredient): 100%; Growth inhibition rate (%) Barnyardgrass ([4]; 63 g/ha active ingredient): 98%; Growth inhibition rate (%) Crabgrass ([5]; 63 g/ha active ingredient): 95%; Growth inhibition rate (%) Greenfoxtail ([6]; 63 g/ha active ingredient): 90%; Growth inhibition rate (%) Rice (rice (Oryza sativa L.); 63 g/ha active ingredient): 90%; Growth inhibition rate (%) Velvetleaf ([7]; 63 g/ha active ingredient): 80%
CCn1ncc(C(=O)c2ccc(S(C)(=O)=O)c(OCCOC)c2C)c1OC(=O)SC(C)C [compound 208]	0%	100%	100%	0%	30%	0%	50%	98%	100%	100%	0%	40%	0%	100%	100%	95%	100%	100%	80%	95%	
CCSC(=O)Oc1c(C(=O)c2ccc(S(C)(=O)=O)c(C(=O)OC)c2Cl)cnn1CC [compound 95]	0%	95%	100%	0%	95%	0%	80%	98%	100%	100%	10%	80%	20%	100%	95%	100%	90%	100%	90%	90%	
CCCCCCCc1c(S(C)(=O)=O)ccc(C(=O)c2cnn(C)c2OC(=O)SCC)c1C [compound 225]	0%	0%	30%	0%	0%	0%	0%	0%	0%	0%	0%	0%	0%	0%	50%	30%	0%	20%	0%	0%	
CCCOC(=O)c1c(S(C)(=O)=O)ccc(C(=O)c2cnn(CC)c2OC(=O)SCC)c1Cl [compound 60]	20%	100%	95%	0%	70%	0%	60%	40%	60%	100%	0%	70%	0%	80%	50%	95%	90%	60%	70%	70%	
